# According to patent US20210353579A1, “HIGH PENETRATION COMPOSITIONS AND USES THEREOF” (Techfields Pharma Co., Ltd., priority 2006, published 2021):
# How the values were obtained:
# [1] = Plasma levels after transdermal administration to hairless mice; format: in vivo; conditions: mouse, in vivo
# Experimental: Tested compounds (20% solution or suspension in 1 mL isopropanol) are administered transdermally to the skin of intact hairless mice. The plasma levels of the parent compounds are determined by HPLC.
# [2] = system: mice; test: Analgesic activity, acetic acid writhing; format: in vivo
# Experimental: The prodrug compounds are administered either transdermally or orally. The parent compounds are administered orally. The number of writhing that occurred when mice are administered the acetic acid solution are counted, and the rate of inhibition based on the control group which was not pretreated with any test compounds is calculated. […] The A group is the control group.
# [3] = system: rats; test: Antipyretic activity, E. coli suspension as pyrogen; format: in vivo; conditions: in °C (unit assumed)
# Experimental: Rats are administered with sterilized E. coli suspension as a pyrogen. Each group of rats are administered with a prodrug compounds or parent compounds at a dosage specified below. The prodrug compounds are administered either orally or transdermally. The parent compounds are administered orally.
# [4] = system: Human breast cancer cells (BCAP-37); test: Human breast cancer xenograft in nude mice, topical; conditions: day 42, 30 μl of 5% (1.5 mg) topically every 8 hours from day 14; for Tumor size: control 800 ± 100
# Experimental: Human breast cancer cells (BCAP-37, 2-3 mm^3 of tumor tissue was used in each mouse) are subcutaneously xenografted into the front leg of nude mice (BALB, 12 groups, 7 mice each group). […] Then 30 μl of 5% (equal to 1.5 mg of the HPPs) diethylaminoethyl acetylsalicylate.acetylsalicylic acid salt (P-1, in acetone); 1-piperidinepropyl 2[(2,6-dichlorophenyl)amino]benzene acetate.AcOH (P-2, in water), 1-pyrrolidinepropyl 2-(3-benzoylphenyl) propionate.AcOH (P-3, in water), 4-piperidinemethyl 2-(3-phenoxyphenyl)propionate.AcOH (P-4, in water), 3-piperidinemethyl 2-(ρ-isobutylphenyl) propionate.AcOH (P-5, in water), diethylaminoethyl 1-(p-chlorobenzoyl)-5-methoxy-2-methylindole 3-acetate.AcOH (P-11, in water), 2-(4-morpholinyl)ethyl (Z)-5-fluoro-2-methyl-1-[(4-methylsulfinyl) phenylmethylene]-1H-indene-3-acetate.AcOH (P-12, in water), diethylaminoethyl
# [5] = system: human skin tissue; conditions: pH 7.4
# [6] = system: rat; conditions: rats;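 further: acute toxicity in rats expressed as LD50, determined for both prodrugs and their parent compounds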
# Experimental: The acute toxicity of the prodrug compounds and parent compounds are measured by LD50 of rat.
# [7] = system: rats (SLAC/GK, type 2 diabetes); test: Blood glucose in type 2 diabetes rats, transdermal; format: in vivo, rat; conditions: diabetic rats (SLAC/GK)
# Excerpt: (§1) HPPs lower blood glucose level in rat models (SLAC/GK, type 2 diabetes, n=7). 50% acetone solution of diethylaminoethyl acetylsalicylate.acetylsalicylic acid salt (P-1, in acetone); 4-acetamidophenyl salicylyldimethylaminobutyrate.HCl (P-6), diethylaminoethyl 5-(2,4-difluorophenyl) acetylsalicylate.5-(2,4-difluorophenyl).acetylsalicylic acid salt (P-8), diethylaminoethyl salicylsalicylate.AcOH (P-9), diethylaminoethyl salicylate.AcOH (P-10), diethylaminoethyl 5-acetamido-acetylsalicylate (P-58), diethylaminoethyl acetylsalicylsalicylate.acetylsalicylsalicylic acid salt (P-59), diethylaminoethyl acetylsalicylsalicylate.acetylsalicylsalicylsalicylic acid salt (P-60) (equal to of 20 mg/kg of NSAIAs) are administered transdermally to the backs (about 1.5 cm^2) of rats (fur was shaved) once per day (at 8 am) for 5 weeks. The blood glucose levels are measured once every 3 days at 3 pm (no fasting) from the second week to the fifth week (Table 24). The blood lipid levels are measured at the end of the fifth week (Table 25).
# [8] = system: rats (SLAC/GK, type 2 diabetes); test: Blood lipid in type 2 diabetes rats, transdermal; format: in vivo, rat
# Excerpt: as §1
# [9] = system: rats (SLAC/GK, type 2 diabetes); test: Blood glucose in type 2 diabetes rats, oral with food; format: in vivo, rat
# Excerpt: (§2) 20% acetone solution of diethylaminoethyl acetylsalicylate.acetylsalicylic acid salt (P-1, in acetone); 4-acetamidophenyl salicylyldimethylaminobutyrate.HCl (P-6), diethylaminoethyl 5-(2,4-difluorophenyl) acetylsalicylate.5-(2,4-difluorophenyl) acetylsalicylic acid salt (P-8), diethylaminoethyl salicylsalicylate.AcOH (P-9), diethylaminoethyl salicylate.AcOH (P-10), diethylaminoethyl 5-acetamido-acetylsalicylate (P-58), diethylaminoethyl acetylsalicylsalicylate. acetylsalicylsalicylic acid salt (P-59), diethylaminoethyl acetylsalicylsalicylate. acetylsalicylsalicylsalicylic acid salt (P-60) (equal to of 20 mg/kg of NSAIAs) were mixed with food and were orally administered to the rats (SLAC/GK, type 2 diabetes, n=7) with food every day for 5 weeks. The blood glucose levels were measured once every 3 days at 3 pm (no fasting) from the second week to the fifth week. The blood lipid levels were measured at the end of the fifth week.
# [10] = system: rats (SLAC/GK, type 2 diabetes); test: Blood lipid in type 2 diabetes rats, oral with food; format: in vivo, rat
# Excerpt: as §2
# [11] = system: mice (SLAC:NOD-IDDM, type 1 diabetes); test: Blood glucose in type 1 diabetes mice, transdermal; format: in vivo, mouse
# Excerpt: The pro-drugs in this invention lower blood glucose levels in mouse models (SLAC:NOD-IDDM, type 1 diabetes, n=7). 50% acetone solution of diethylaminoethyl acetylsalicylate.acetylsalicylic acid salt (P-1, in acetone); 4-acetamidophenyl salicylyldimethylaminobutyrate.HCl (P-6), diethylaminoethyl 5-(2,4-difluorophenyl) acetylsalicylate.5-(2,4-difluorophenyl) acetylsalicylic acid salt (P-8), diethylaminoethyl salicylsalicylate.AcOH (P-9), diethylaminoethyl salicylate.AcOH (P-10), diethylaminoethyl 5-acetamido-acetylsalicylate (P-58), diethylaminoethyl acetylsalicylsalicylate. acetylsalicylsalicylic acid salt (P-59), diethylaminoethyl acetylsalicylsalicylate. acetylsalicylsalicylsalicylic acid salt (P-60) (equal to of 30 mg/kg of NSAIAs) were administered transdermally to the backs (about 1.5 cm^2) of mice (fur was shaved) once per day (at 8 am) for 7 weeks. The blood glucose levels were measured once every 3 days at 3 pm (no fasting) from the fourth week to the seventh week.
# [12] = system: normal rats; test: Blood glucose in normal rats, transdermal; format: in vivo, rat
# Excerpt: as §1, with “25). […]” for “25).”
# [13] = system: normal rats; test: Blood glucose in normal rats, oral with food; format: in vivo, rat
# [14] = 50 mg/kg transdermally, 60 minutes before acetic acid
# [15] = baseline, equal to 20 mg/kg of NSAIAs
# [16] = end of the fifth week, equal to 20 mg/kg of NSAIAs once per day
# [17] = end of the fifth week, equal to 20 mg/kg of NSAIAs every day
# [18] = 100 mg/kg transdermally, 30 min before acetic acid
structure (smiles),measurement,setting,value
"CN(C)CCCC(=O)OC1=C(C(=O)Nc2ccccn2)N(C)S(=O)(=O)c2ccccc21.Cl [4-N,N-dimethylaminobutyryloxy-2-methyl-N-2-pyridinyl-2H,1,2-benzothiazine-3-carboxamide 1,1-dioxide.HCl]",Peak plasma concentration of parent compound after prodrug compound,[1],20 mg/L
same,% (rate of writhing inhibition),[2]; [14],55%
same,No. of Writhing,[2]; [14],15.6
same,"body temperature, t = 0 min",[3]; 25 mg/kg transdermally,37.57 ± 0.06
same,"body temperature, t = 90 min",[3]; 25 mg/kg transdermally,36.51 ± 0.05
same,"body temperature, t = 180 min",[3]; 25 mg/kg transdermally,36.40 ± 0.06
same,"body temperature, t = 270 min",[3]; 25 mg/kg transdermally,36.45 ± 0.07
same,Tumor size,[4],390 ± 50 mm^3
same,"In vitro penetration rate (apparent flux), prodrug compounds",[5],1700 μg/cm^2/h
same,LD50 of HPP,[6],550 mg/kg
"CC(=O)O.CC1=C(CC(=O)OCCN2CCOCC2)c2cc(F)ccc2/C1=C\c1ccc([S+](C)[O-])cc1 (centres unmarked) [P-12, 2-(4-morpholinyl)ethyl (Z)-5-fluoro-2-methyl-1-[(4-methylsulfinyl)phenylmethylene]-1H-indene-3-acetate.AcOH]",Tumor size,[4],250 ± 50 mm^3
CC(=O)O.O=C(OCCCN1CCCC1)c1ccccc1Nc1cccc(C(F)(F)F)c1 [P-48],Mouse weight,[4]; control 22 ± 2,22 ± 3 g
same,Tumor size,[4],290 ± 50 mm^3
"CC(=O)Oc1ccccc1C(=O)Oc1ccccc1C(=O)Oc1ccccc1C(=O)O.CCN(CC)CCOC(=O)c1ccccc1OC(=O)c1ccccc1OC(C)=O [P-60, diethylaminoethyl acetylsalicylsalicylate.acetylsalicylsalicylsalicylic acid salt]","Blood glucose, Average","[7]; average second to fifth week, no fasting, equal to 20 mg/kg of NSAIAs once per day for 5 weeks",8.6 ± 1 mmol/L
same,"Blood glucose, Baseline","[7]; baseline, equal to 20 mg/kg of NSAIAs once per day",15.5 ± 3 mmol/L
same,"Cholesterol (HDL), Baseline",[8]; [15],1.3 ± 0.2 mmol/L
same,"Cholesterol (total), Baseline",[8]; [15],7.3 ± 0.6 mmol/L
same,"Triglycerides, Baseline",[8]; [15],5.3 ± 0.6 mmol/L
same,"Cholesterol (HDL), Average",[8]; [16],1.5 ± 0.2 mmol/L
same,"Cholesterol (total), Average",[8]; [16],5.6 ± 0.3 mmol/L
same,"Triglycerides, Average",[8]; [16],2.5 ± 0.2 mmol/L
same,"Blood glucose, Diabetic rats, Average","[9]; average second to fifth week, no fasting, equal to 20 mg/kg of NSAIAs every day for 5 weeks",7.9 ± 1 mmol/L
same,"Blood glucose, Diabetic rats, Baseline",[9]; [15],16.5 ± 3 mmol/L
same,"Cholesterol (HDL), Baseline",[10]; [15],1.5 ± 0.2 mmol/L
same,"Cholesterol (total), Baseline",[10]; [15],7.5 ± 0.5 mmol/L
same,"Triglycerides, Baseline",[10]; [15],5.2 ± 0.5 mmol/L
same,"Cholesterol (HDL), Average",[10]; [17],1.6 ± 0.2 mmol/L
same,"Cholesterol (total), Average",[10]; [17],5.5 ± 0.3 mmol/L
same,"Triglycerides, Average",[10]; [17],2.5 ± 0.2 mmol/L
same,"Blood glucose, Average","[11]; average fourth to seventh week, no fasting, equal to 30 mg/kg of NSAIAs once per day for 7 weeks",8.6 ± 1 mmol/L
same,"Blood glucose, Baseline","[11]; baseline, equal to 30 mg/kg of NSAIAs",25.5 ± 3 mmol/L
same,"Blood glucose, Average","[12]; normal rats (second Average line of Table 24), average second to fifth week, equal to 20 mg/kg of NSAIAs once per day",7.5 ± 1 mmol/L
same,"Blood glucose, Baseline","[12]; normal rats (second Baseline line of Table 24), baseline, equal to 20 mg/kg of NSAIAs",6.6 ± 1 mmol/L
same,"Blood glucose, Normal rats, Average","[13]; average second to fifth week, equal to 20 mg/kg of NSAIAs every day",7.3 ± 1 mmol/L
same,"Blood glucose, Normal rats, Baseline",[13]; [15],6.8 ± 1 mmol/L
"CC(=O)O.CCN(CC)CCOC(=O)Cc1ccccc1Oc1ccc(Cl)cc1Cl [diethylaminoethyl 2-(2,4-dichlorophenoxy)benzeneacetate.AcOH]",Peak plasma concentration of parent compound after prodrug compound,[1],20 mg/L
same,"t, time to peak plasma level of parent compound after prodrug compound",[1],50 min
same,% (rate of writhing inhibition),[2]; [18],59%
same,No. of Writhing,[2]; [18],14.2
same,"body temperature, t = 0 min",[3]; 100 mg/kg transdermally,37.22 ± 0.06
same,"body temperature, t = 90 min",[3]; 100 mg/kg transdermally,36.65 ± 0.06
same,"body temperature, t = 180 min",[3]; 100 mg/kg transdermally,36.58 ± 0.08
same,"body temperature, t = 270 min",[3]; 100 mg/kg transdermally,36.56 ± 0.07
same,Tumor size,[4],280 ± 50 mm^3
same,"In vitro penetration rate (apparent flux), prodrug compounds",[5],1500 μg/cm^2/h
same,LD50 of HPP,[6],200 mg/kg
"CC(=O)O.CCN(CC)CCOC(=O)C(C)c1ccc2c(c1)C(=O)Cc1cc(C)ccc1O2 (centres unmarked) [diethylaminoethyl 2-(8-methyl-10, 11-dihydro-11-oxodibenz(b,f)oxepin-2-yl)propionate.AcOH]",Peak plasma concentration of parent compound after prodrug compound,[1],2000 mg/L
same,"t, time to peak plasma level of parent compound after prodrug compound",[1],50 min
same,% (rate of writhing inhibition),[2]; [18],61%
same,No. of Writhing,[2]; [18],13.8
same,"body temperature, t = 0 min",[3]; 100 mg/kg transdermally,37.26 ± 0.07
same,"body temperature, t = 90 min",[3]; 100 mg/kg transdermally,36.80 ± 0.06
same,"body temperature, t = 180 min",[3]; 100 mg/kg transdermally,36.70 ± 0.05
same,"body temperature, t = 270 min",[3]; 100 mg/kg transdermally,36.57 ± 0.08
same,Tumor size,[4],250 ± 50 mm^3
same,"In vitro penetration rate (apparent flux), prodrug compounds",[5],4100 μg/cm^2/h
